Test results as given in patent US20110098288A1, “SULFONAMIDES AS ZAP-70 INHIBITORS” (priority 2008, published 2011).

Tests used:
[1] = system: Jurkat cells; assay: Calcium release assay (Fluo-4 flow cytometry after anti-CD3 stimulation); format: cell-based; conditions: Homo sapiens, Jurkat cell line J77, anti-CD3 activation, read-out: IC50 (Calcium ion release in cells)
Protocol: Compounds of the present invention were tested in a Calcium release assay as described below.
The development of fluorescent probes makes it possible to measure the concentration of intracellular free Calcium ions in single living cells. Cells are first loaded with a cell-permeable Ca^2+-sensitive dye, then the test compound is added. Finally, cells are activated through the T cell receptor with an anti-CD3 antibody shortly before data acquisition on the flow cytometer. The release of Ca^2+ is measured as a function of time after cell stimulation. This protocol describes the flow cytometry method using the Fluo-3 and Fluo-4 dyes (Minta et al., 1989, J. Biol. Chem. 264(14):8171-8178) to measure the intracellular Ca^2+ concentration in Jurkat cells (see also June et al., 1997, Measurement of intracellular calcium ions by flow cytometry. In: Current Protocols in Cytometry (1997) Unit 9.8.1-9.8.19, John Wiley & Sons, Inc.).
In general, cells should be handled in the shortest time possible to assure their stability. Therefore the preparation of all materials in advance is highly recommended as well as using any incubation or centrifugation time to prepare the next steps (e.g. preparing compound dilution or starting the flow cytometer).
1) Prepare a work plan indicating the number of samples to be analyzed including controls. 2) Cell harvest: Centrifuge 50 to 100 ml of a Jurkat cell culture for 5 minutes at 1100 rpm. Discard the supernatant, pool the resuspended cell pellets in a single 50 ml Falcon tube, and fill up to 50 ml with PBS—CaCl2 (without FCS). Centrifuge again sample again. 3) Resuspend cell pellet with PBS—CaCl2 (without FCS) to achieve a concentration not lower than 10×10^6 cells/ml. Prepare an adequate dilution to evaluate the cell concentration and count the cells. 4) Separate the volume of cells needed to be loaded (for example […] for 20 samples) in a 50 ml Falcon tube. Fill up with PBS—CaCl2 to 900 μl for 107 cells. 5) Prepare in the dark a 1:1 mix of FLUO-4 (1 mM)+Pluronic F-127 (20%). 5 μl of Fluo-4 are needed per 107 cells. 6) Prepare a 1/10 dilution of this mix with PBS—CaCl2 (in the dark; for example 5 μl Fluo-4+5 μl F-127 completed to 100 μl). 7) Add the dye solution to the cells. […] 8) Incubate the sample for 30 minutes in a cell incubator (37° C., 5% CO2). Mix from time to time. 9) During this time prepare the adequate test compound dilution in PBS—CaCl2 (with 10% FCS). The solution should be 10 times more concentrated than the desired final concentration. Vortex each dilution. Prepare also the antibody dilutions: anti-CD3 (1/200) and GAM (1/25). 10) Label FACS tubes and distribute in the corresponding tube 30 μl of the compound dilution or only buffer for the control tubes. 11) After 30 minutes of incubation wash the cells twice in PBS—CaCl2 (with 10% FCS). During the washing steps make sure that the flow cytometer is already “ON” in order to warm the laser. 12) Resuspend the cell pellet in PBS—CaCl2 (with 10% FCS) at a concentration of 1.5×10^6 cells/ml. 13) Distribute 300 μl of cell suspension into the FACS tubes and mix gently. The compound incubation is starting. Keep samples at room temperature in the dark. 14) Open the settings of the cytometer. It is advised to have a template ready which is used for all measurements. Settings of the machine should also be the same from one experiment to the other which permits to evaluate the reproducibility of the cell preparation. 15) In Setup modus control your cell preparation on the cytometer. Cells should fit in the pre-defined gates. 16) During the compound incubation time, check also that cells are responding to the anti-CD3 activation as expected. Set a timer at 8 sec. Add 6 μl of anti-CD3 dilution (0.2 μg/ml final) and mix gently. Add 1 μl of GAM dilution (0.75 μg/ml final) and mix gently. Incubate the samples in water bath at 37° C. while starting timer. After 8 seconds of incubation, acquire data at medium speed for 200 seconds. […]

[2] = biological target: T1, ZAP-70 (Homo sapiens, UniProt P43403); assay: ZAP-70 kinobeads assay; format: binding; conditions: competition with immobilized aminopyrido-pyrimidine ligand 24 in cell lysate; ZAP-70 detected by dot blot
T1 construct: endogenous in cells; host or cells: cell lysate
T1 sequence (P43403 1-619): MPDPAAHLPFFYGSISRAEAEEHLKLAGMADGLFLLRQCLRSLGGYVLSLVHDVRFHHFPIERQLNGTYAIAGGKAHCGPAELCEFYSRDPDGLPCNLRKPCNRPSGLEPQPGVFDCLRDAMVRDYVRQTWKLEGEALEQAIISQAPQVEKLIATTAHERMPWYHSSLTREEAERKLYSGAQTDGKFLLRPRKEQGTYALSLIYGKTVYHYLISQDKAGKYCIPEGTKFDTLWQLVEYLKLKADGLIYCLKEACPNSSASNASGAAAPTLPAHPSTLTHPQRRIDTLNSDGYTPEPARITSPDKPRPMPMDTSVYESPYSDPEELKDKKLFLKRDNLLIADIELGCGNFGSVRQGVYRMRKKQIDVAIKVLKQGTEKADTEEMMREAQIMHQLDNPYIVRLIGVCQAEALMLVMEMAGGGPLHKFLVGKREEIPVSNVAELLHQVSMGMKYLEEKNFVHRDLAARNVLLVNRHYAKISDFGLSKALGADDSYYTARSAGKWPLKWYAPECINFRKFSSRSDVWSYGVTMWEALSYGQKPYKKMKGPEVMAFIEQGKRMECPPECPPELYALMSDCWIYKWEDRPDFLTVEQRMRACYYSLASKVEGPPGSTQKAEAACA
Outline: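 Competition binding format: compounds compete with a bead-immobilized aminopyrido-pyrimidine ligand for ZAP-70 in cell lysate. After bead separation and elution, bound ZAP-70 measured by antibody dot blot with infrared read-out.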

| SMILES | IC50 [1] [nM] | IC50 [2] [nM] |
| --- | --- | --- |
| CS(=O)(=O)Nc1ccccc1Nc1nc(Nc2cccc(O)c2)ncc1F [Example 76, N-(2-(5-fluoro-2-(3-hydroxyphenylamino)pyrimidin-4-ylamino)phenyl)methanesulfonamide] | 100 to 1000 | 100 to 1000 |
| COc1cc(Nc2ncc(Cl)c(Nc3ccccc3NS(C)(=O)=O)n2)ccc1OCCN1CCCC1 [Example 141, N-(2-(5-chloro-2-(3-methoxy-4-(2-(pyrrolidin-1-yl)ethoxy)phenylamino)pyrimidin-4-ylamino)phenyl)methanesulfonamide] | < 100 | < 100 |
| COc1cccc(Nc2ncc(F)c(Nc3ccccc3NS(C)(=O)=O)n2)c1 [Example 38, N-(2-(5-fluoro-2-(3-methoxyphenylamino)pyrimidin-4-ylamino)phenyl)methanesulfonamide] | 100 to 1000 | 1000 to 10000 |
| CS(=O)(=O)Nc1ccccc1Nc1nc(Nc2ccc(OCCN3CCOCC3)cc2)ncc1F [Example 86, N-(2-(5-fluoro-2-(4-(2-morholinoethoxy)phenylamino)pyrimidin-4-ylamino)phenyl)methanesulfonamide] | 100 to 1000 | 100 to 1000 |
| COc1cc(Nc2ncc(F)c(Nc3cccc(C)c3NS(C)(=O)=O)n2)cc(OC)c1OCCN1CCCCC1 [Example 113, N-(2-(2-(3,5-dimethoxy-4-(2-(piperidin-1-yl)ethoxy)phenylamino)-5-fluoropyrimidin-4-ylamino)-6-methylphenyl)methanesulfonamide] | 100 to 1000 | < 100 |
| COc1cc(Nc2ncc(Cl)c(Nc3ccc4c(c3NS(C)(=O)=O)OCCO4)n2)cc(OC)c1OC [Example 164, N-(6-(5-chloro-2-(3,4,5-trimethoxyphenylamino)pyrimidin-4-ylamino)-2,3-dihydrobenzo[b][1,4]dioxin-5-yl)methanesulfonamide] | < 100 | < 100 |
| CNCCS(=O)(=O)Nc1cccc(Nc2nc(Nc3cc(OC)c(OC)c(OC)c3)ncc2F)c1 [Example 64, N-(3-(5-fluoro-2-(3,4,5-trimethoxyphenylamino)pyrimidin-4-ylamino)phenyl)-2-(methylamino)ethanesulfonamide] | 100 to 1000 | 100 to 1000 |
| CCNC(=O)COc1cccc(Nc2ncc(F)c(Nc3ccccc3NS(C)(=O)=O)n2)c1 [Example 101, N-ethyl-2-(3-(5-fluoro-4-(2-(methylsulfonamido)phenylamino)pyrimidin-2-ylamino)phenoxy)acetamide] | 100 to 1000 | 100 to 1000 |
| COc1cc(Nc2ncc(Cl)c(Nc3cccc(C)c3NS(C)(=O)=O)n2)cc(OC)c1OC [Example 160, N-(2-(5-chloro-2-(3,4,5-trimethoxyphenylamino)pyrimidin-4-ylamino)-6-methylphenyl)methanesulfonamide] | < 100 | < 100 |
| CS(=O)(=O)Nc1ccccc1Nc1nc(Nc2ccc3c(c2)OCCO3)ncc1F [Example 4, N-(2-(2-(2,3-dihydrobenzo[b][1,4]dioxin-6-ylamino)-5-fluoropyrimidin-4-ylamino)phenyl)methanesulfonamide] | 100 to 1000 | 1000 to 10000 |
| CS(=O)(=O)Nc1ccccc1Nc1nc(Nc2ccc(NC(=O)CN3CCCC3)cc2)ncc1Cl [Example 132, N-(4-(5-chloro-4-(2-(methylsulfonamido)phenylamino)pyrimidin-2-ylamino)phenyl)-2-(pyrrolidin-1-yl)acetamide] | < 100 | 100 to 1000 |
| CCOc1ccc(Nc2nc(Nc3cc(OC)c(OC)c(OC)c3)ncc2F)c(NS(C)(=O)=O)c1C [Example 168, N-(3-ethoxy-6-(5-fluoro-2-(3,4,5-trimethoxyphenylamino)pyrimidin-4-ylamino)-2-methylphenyl)methanesulfonamide] | 100 to 1000 | 100 to 1000 |
| COc1cc(Nc2ncc(F)c(Nc3cccc(C)c3NS(C)(=O)=O)n2)cc(OC)c1OC [Example 116, N-(2-(5-fluoro-2-(3,4,5-trimethoxyphenylamino)pyrimidin-4-ylamino)-6-methylphenyl)methanesulfonamide] | 100 to 1000 | 100 to 1000 |
| COc1cc(Nc2ncc(F)c(Nc3ccc(OC(C)C)cc3NS(C)(=O)=O)n2)cc(OC)c1OC [Example 182, N-(2-(5-fluoro-2-(3,4,5-trimethoxyphenylamino)pyrimidin-4-ylamino)-5-isopropoxyphenyl)methanesulfonamide] | < 100 | < 100 |
| COc1cc(Nc2ncc(Cl)c(Nc3ccccc3NS(C)(=O)=O)n2)cc(OCC(C)C)c1OC [Example 137, N-(2-(5-chloro-2-(3-isobutoxy-4,5-dimethoxyphenylamino)pyrimidin-4-ylamino)phenyl)methanesulfonamide] | 100 to 1000 | < 100 |
| COc1cc(Nc2ncc(F)c(Nc3ccc(C)cc3NS(C)(=O)=O)n2)cc(OC)c1OC [Example 170, N-(2-(5-Fluoro-2-(3,4,5-trimethoxyphenylamino)pyrimidin-4-ylamino)-5-methylphenyl)methanesulfonamide] | 100 to 1000 | 100 to 1000 |
| CS(=O)(=O)Nc1ccccc1Nc1nc(Nc2cccc(OCCO)c2)ncc1Cl [Example 123, N-(2-(5-chloro-2-(3-(2-hydroxyethoxy)phenylamino)pyrimidin-4-ylamino)phenyl)methanesulfonamide] | < 100 | < 100 |
| CN1CCN(CCOc2ccc(Nc3ncc(F)c(Nc4ccccc4NS(C)(=O)=O)n3)cc2)CC1 [Example 89, N-(2-(5-Fluoro-2-(4-(2-(4-methylpiperazin-1-yl)ethoxy)phenylamino)pyrimidin-4-ylamino)phenyl)methanesulfonamide] | 100 to 1000 | 100 to 1000 |
| COc1cc(Nc2ncc(F)c(Nc3ccccc3NS(C)(=O)=O)n2)cc(OC)c1 [Example 37, N-(2-(2-(3,5-dimethoxyphenylamino)-5-fluoropyrimidin-4-ylamino)phenyl)methanesulfonamide] | 100 to 1000 | 100 to 1000 |
| CS(=O)(=O)Nc1ccccc1Nc1nc(Nc2ccc(N3CCCCC3)cc2)ncc1Br [Example 215, N-(2-(5-bromo-2-(4-(piperidin-1-yl)phenylamino)pyrimidin-4-ylamino)phenyl)methanesulfonamide] | 100 to 1000 | 100 to 1000 |
| CS(=O)(=O)Nc1ccccc1Nc1nc(Nc2cccc(OCCCN3CCCCC3)c2)ncc1Cl [Example 134] | 100 to 1000 | < 100 |
